By Emax is commonly meant the size of the effect at its maximum, as opposed to the concentration needed. One may read the EC50 as the midpoint of the concentration-response curve. The low end stands for higher potency in that assay, the high end for lower potency in that assay.

In the assay the target is T1, Human GLP-1 receptor stably expressing cells (hGLP-1R/CHO-K1 cells) (Homo sapiens, UniProt P43220).
T1 construct: expressed in transfected cells
Briefly: Measurement of GLP-1 receptor agonist activity (cAMP assay). The format is cell-based. The following applies: for Emax: CHO-K1, maximum effect, cAMP with 2 nM human GLP-1 (7-36) = 100%, DMSO only = 0%, read-out: Emax; for EC50: increase in cAMP concentration in hGLP-1R/CHO-K1 cells, 37° C. 1 hour. The protocol:
Test Example 1: Measurement of GLP-1 Receptor Agonist Activity
Human GLP-1 receptor stably expressing cells (hGLP-1R/CHO-K1 cells) are cultured in an a-MEM medium (Sigma) containing 10% FBS (Hyclone), 2% GlutaMAX (Gibco), 1% G418 (Nacalai Tesque), and 1% Penicillin-Streptomycin Mixed Solution (Sigma) at 37° C. under 5% CO2 conditions, and recovered by treating a 10 fold diluted 5.0 g/1-trypsin/5.3 mmol/1-EDTA solution (Nacalai Tesque) and cryopreserved.
A DMSO solution containing the compound of the present invention or human GLP-1 (7-36) (Phoenix Pharmaceuticals) is dispensed into a 384-well microplate (Greiner) at 62.5 nL/well, and in addition, 400 μM Forskolin (Nacalai Tesque) is dispensed therein at 7.5 nL/well. Subsequently, the frozen GLP-1 R/CHO-K1 cells are thawed in a thermostatic bath at 37° C., suspended in HBSS buffer (GIBCO) containing 0.1% BSA (Sigma), 20 mM HEPES, 0.1 mM IBMX (Sigma), and 0.2 mM RO20-1724 (Calbiochem) at 2×10^4 cells/mL, and the cell suspension is added at 6 μL/well. The solution was incubated at 37° C. for 1 hour and intracellular cAMP concentration is measured using cAMP Gs dynamic kit (Cisbio) according to the protocol attached to the product. Specifically, a cAMP-d2/Anti-cAMP-Cryptate (1/1) mixture solution is added in a total amount of 6 μL/well, and is incubated at room temperature for 1 hour, and then, time-resolved fluorescence is measured using PHERAstar (BMG Labtech).
Assuming that the cAMP concentration when human GLP-1 (7-36) is dispensed to a final concentration of 2 nM is 100% and the cAMP concentration when only DMSO is dispensed is 0%, the 50% effective concentration (EC50) and the maximum effect (Emax) of the compound of the present invention are calculated using an increase in the cAMP concentration as an index, using TIBCO Spotfire (TIBCO Software). The dilution concentration or the dilution solvent are changed as necessary.
The compounds of the present invention were tested essentially as described above.

Molecules are shown by their SMILES.

T1 sequence (P43220 24-463): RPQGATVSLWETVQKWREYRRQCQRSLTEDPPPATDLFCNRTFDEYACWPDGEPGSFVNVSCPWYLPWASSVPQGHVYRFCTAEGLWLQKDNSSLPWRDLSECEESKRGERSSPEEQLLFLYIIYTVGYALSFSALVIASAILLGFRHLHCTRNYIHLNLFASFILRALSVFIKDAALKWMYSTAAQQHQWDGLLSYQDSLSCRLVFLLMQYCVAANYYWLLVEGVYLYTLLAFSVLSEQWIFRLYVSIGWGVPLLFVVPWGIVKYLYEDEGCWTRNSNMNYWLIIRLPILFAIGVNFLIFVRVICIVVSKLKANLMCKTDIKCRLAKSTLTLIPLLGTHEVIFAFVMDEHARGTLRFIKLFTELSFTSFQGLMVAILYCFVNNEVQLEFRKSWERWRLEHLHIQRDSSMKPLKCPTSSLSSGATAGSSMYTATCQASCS

With `C[C@H]1c2nc(OCc3ccc(Cl)cn3)c(Cl)cc2CCN1Cc1nc2c(F)cc(C(=O)O)cc2n1C[C@@H]1CCO1` [Compound I-081], the Emax was determined as 96.7% and the EC50 was 0.179 nM.
For `C[C@H]1c2nc(OCc3ccc(Cl)cc3)c(Cl)cc2CCN1Cc1nc2c(F)cc(C(=O)O)cc2n1C[C@@H]1CCO1` [Compound I-082], in that order: 100% and 0.0849 nM.
Turning to `C[C@H]1c2nc(OCc3ccc(F)cc3F)c(Cl)cc2CCN1Cc1nc2c(F)cc(C(=O)O)cc2n1C[C@@H]1CCO1` [Compound I-083], the Emax is 116% and a half-maximal effect (EC50) was put at 0.122 nM.
Take `C[C@H]1c2nc(OCc3ccc(Cl)cc3Cl)c(Cl)cc2CCN1Cc1nc2c(F)cc(C(=O)O)cc2n1C[C@@H]1CCO1` [Compound I-084]: the Emax came out at 94.7% and the EC50 came to 0.0587 nM.
In the case of `C[C@H]1c2nc(OCc3ccc(C#N)cc3F)c(Cl)cc2CCN1Cc1nc2c(F)cc(C(=O)O)cc2n1C[C@@H]1CCO1` [Compound I-086], the Emax was found to be 101% and the EC50 stood at 0.0685 nM.
In the same order, the values of `C[C@H]1c2nc(OCc3ccc(F)cc3)c(Cl)cc2CCN1Cc1nc2c(F)cc(C(=O)O)cc2n1C[C@@H]1CCO1` [Compound I-087] are 103% and 0.248 nM.
For `C[C@H]1c2nc(OCc3c(F)cc(Cl)cc3F)c(Cl)cc2CCN1Cc1nc2c(F)cc(C(=O)O)cc2n1C[C@@H]1CCO1` [Compound I-088], in that order: 103% and 0.0865 nM.
With `C[C@H]1c2nc(OCc3ccc(Cl)cc3F)c(Cl)cc2CCN1Cc1nc2c(F)cc(C(=O)O)cc2n1C[C@@H]1CCO1` [Compound I-089], the Emax is 106% and the response was half-maximal at 0.0739 nM (EC50).
In the same order, the values of `C[C@H]1c2c(cc(Cl)c3c2OC(C)(c2ccc(Cl)cc2F)O3)CCN1Cc1nc2ccc(C(=O)O)cc2n1C[C@@H]1CCO1` (stereo partly drawn) [Compound I-090] are 98% and 2.05 nM.
In the same order, the values of `C[C@H]1c2c(ccc3c2OC(C)(c2ccc(Cl)cc2F)O3)CCN1Cc1nc2ccc(C(=O)O)cc2n1C[C@@H]1CCO1` (stereo partly drawn) [Compound I-091] are 91.7% and 2.64 nM.
In the same order, the values of `C[C@H]1c2c(cc(Cl)c3c2OC(C)(c2ccc(Cl)cn2)O3)CCN1Cc1nc2ccc(C(=O)O)cc2n1C[C@@H]1CCO1` (stereo partly drawn) [Compound I-092] are 108% and 1.58 nM.
With `C[C@H]1c2c(ccc3c2OC(C)(c2ccc(Cl)cn2)O3)CCN1Cc1nc2ccc(C(=O)O)cc2n1C[C@@H]1CCO1` (stereo partly drawn) [Compound I-093], the Emax was 96.3% and the EC50 worked out at 6.34 nM.
For `C[C@H]1c2nc(NCc3ccc(Cl)cc3F)c(C(F)(F)F)cc2CCN1Cc1nc2ccc(C(=O)O)cc2n1C[C@@H]1CCO1` [Compound I-094], in that order: 103% and 0.256 nM.
Regarding `C[C@H]1c2nc(CCc3ccc(Cl)cc3)c(C(F)(F)F)cc2CCN1Cc1nc2ccc(C(=O)O)cc2n1C[C@@H]1CCO1` [Compound I-095], the Emax amounted to 102% and the EC50 amounted to 0.716 nM.
For `C[C@H]1c2nc(SCc3ccc(Cl)cc3F)c(C(F)(F)F)cc2CCN1Cc1nc2ccc(C(=O)O)cc2n1C[C@@H]1CCO1` [Compound I-096], the Emax came out at 103% and the EC50 worked out at 0.247 nM.
For `C[C@H]1c2nc(OCc3ccc(Cl)cc3F)c(C(F)F)cc2CCN1Cc1nc2ccc(C(=O)O)nc2n1C[C@@H]1CCO1` [Compound I-097], in that order: 109% and 0.343 nM.
For `Cc1ccc(COc2nc3c(cc2C(F)F)CCN(Cc2nc4ccc(C(=O)O)nc4n2C[C@@H]2CCO2)[C@H]3C)cc1` [Compound I-098], in that order: 118% and 1.16 nM.
For `C[C@H]1c2nc(OCc3ccccc3Cl)c(C(F)F)cc2CCN1Cc1nc2ccc(C(=O)O)nc2n1C[C@@H]1CCO1` [Compound I-099], in that order: 106% and 2.55 nM.
Regarding `C[C@H]1c2nc(OCc3ccc(Cl)cc3Cl)c(C(F)F)cc2CCN1Cc1nc2ccc(C(=O)O)nc2n1C[C@@H]1CCO1` [Compound I-100], the Emax turned out to be 115% and the EC50 amounted to 0.58 nM.
In the same order, the values of `C[C@H]1c2nc(OCc3c(F)cc(Cl)cc3F)c(C(F)F)cc2CCN1Cc1nc2ccc(C(=O)O)nc2n1C[C@@H]1CCO1` [Compound I-101] are 108% and 0.469 nM.
Consider `C[C@H]1c2nc(OCc3cc(F)c(Cl)cc3F)c(C(F)F)cc2CCN1Cc1nc2ccc(C(=O)O)nc2n1C[C@@H]1CCO1` [Compound I-102], for which the Emax was 117% and the EC50 is 0.469 nM.
In the same order, the values of `C[C@H]1c2nc(OCc3ccc(C#N)cc3F)c(C(F)F)cc2CCN1Cc1nc2ccc(C(=O)O)nc2n1C[C@@H]1CCO1` [Compound I-103] are 97% and 0.558 nM.
For `O=C(O)c1ccc2nc(C3CC34CCc3cc(C(F)(F)F)c(OCc5ccc(Cl)cc5F)cc3C4)n(C[C@@H]3CCO3)c2c1` (stereo partly drawn) [Compound I-104], in that order: 75.3% and 514 nM.
For the molecule `C[C@H]1c2nc(OCc3ncc(Cl)cc3F)c(C(F)(F)F)cc2CCN1Cc1nc2ccc(C(=O)O)cc2n1C[C@@H]1CCO1` [Compound I-105], the Emax worked out at 110% and the EC50 was found to be 0.314 nM.
As to `C[C@H]1c2nc(OCc3ncc(Cl)cc3Cl)c(C(F)(F)F)cc2CCN1Cc1nc2ccc(C(=O)O)cc2n1C[C@@H]1CCO1` [Compound I-106], the Emax stood at 112% and the EC50 stood at 0.371 nM.
As for `C[C@H]1c2nc(OCc3c(F)cc(C#N)cc3F)c(C(F)(F)F)cc2CCN1Cc1nc2ccc(C(=O)O)cc2n1C[C@@H]1CCO1` [Compound I-107], the Emax amounted to 111% and the response was half-maximal at 0.106 nM (EC50).
In the same order, the values of `C[C@H]1c2nc(OCc3ccc(Cl)cc3F)c(C(F)F)cc2CCN1Cc1nc2c(F)cc(C(=O)O)cc2n1C[C@@H]1CCO1` [Compound I-108] are 111% and 0.038 nM.
For `C[C@H]1c2nc(OCc3ccc(Cl)cc3)c(C(F)F)cc2CCN1Cc1nc2c(F)cc(C(=O)O)cc2n1C[C@@H]1CCO1` [Compound I-109], in that order: 112% and 0.101 nM.
In the same order, the values of `C[C@H]1c2nc(OCc3ccc(F)cc3F)c(C(F)F)cc2CCN1Cc1nc2c(F)cc(C(=O)O)cc2n1C[C@@H]1CCO1` [Compound I-110] are 113% and 0.0706 nM.
In the case of `C[C@H]1c2nc(OCc3ccc(Cl)cc3Cl)c(C(F)F)cc2CCN1Cc1nc2c(F)cc(C(=O)O)cc2n1C[C@@H]1CCO1` [Compound I-111], the Emax is 110% and it took 0.0683 nM to reach a half-maximal effect (EC50).
For `C[C@H]1c2nc(OCc3ccc(Cl)cn3)c(C(F)F)cc2CCN1Cc1nc2c(F)cc(C(=O)O)cc2n1C[C@@H]1CCO1` [Compound I-112], in that order: 110% and 0.191 nM.
For `C[C@H]1c2nc(OCc3c(F)cc(Cl)cc3F)c(C(F)F)cc2CCN1Cc1nc2c(F)cc(C(=O)O)cc2n1C[C@@H]1CCO1` [Compound I-113], in that order: 116% and 0.0331 nM.
Regarding `C[C@H]1c2nc(OCc3cc(F)c(Cl)cc3F)c(C(F)F)cc2CCN1Cc1nc2c(F)cc(C(=O)O)cc2n1C[C@@H]1CCO1` [Compound I-114], the Emax turned out to be 113% and the EC50 is 0.0604 nM.
As to `C[C@H]1c2nc(OCc3ccc(C#N)cc3F)c(C(F)F)cc2CCN1Cc1nc2c(F)cc(C(=O)O)cc2n1C[C@@H]1CCO1` [Compound I-115], the Emax was 113% and the response was half-maximal at 0.043 nM (EC50).
Regarding `C[C@H]1c2nc(OCc3ccc(Cl)cc3F)c(C(F)F)cc2CCN1Cc1nc2ccc(C(=O)O)c(F)c2n1C[C@@H]1CCO1` [Compound I-116], the Emax stood at 122% and the EC50 was found to be 0.0463 nM.
For `C[C@H]1c2nc(OCc3ccc(F)cc3)c(C(F)F)cc2CCN1Cc1nc2ccc(C(=O)O)c(F)c2n1C[C@@H]1CCO1` [Compound I-117], in that order: 118% and 0.372 nM.
For `C[C@H]1c2nc(OCc3ccc(Cl)cc3)c(C(F)F)cc2CCN1Cc1nc2ccc(C(=O)O)c(F)c2n1C[C@@H]1CCO1` [Compound I-118], in that order: 113% and 0.105 nM.
For `Cc1ccc(COc2nc3c(cc2C(F)F)CCN(Cc2nc4ccc(C(=O)O)c(F)c4n2C[C@@H]2CCO2)[C@H]3C)cc1` [Compound I-119], in that order: 120% and 0.148 nM.
With `C[C@H]1c2nc(OCc3ccccc3Cl)c(C(F)F)cc2CCN1Cc1nc2ccc(C(=O)O)c(F)c2n1C[C@@H]1CCO1` [Compound I-120], the Emax was found to be 121% and the midpoint of the response, the EC50, lay at 0.481 nM.
